Like-named read-outs stand apart in the source and are kept apart here. Marks after values point to notes of the source that are not given here. Bridge positions count the residues as written; N and C are the ends. Square brackets hold non-standard residues; d marks the D form. Peptide text beside a SMILES is read from it. * marks the point of attachment. DOTA = O=C(O)CN1CCN(CC(=O)O)CCN(CC(=O)*)CCN(CC(=O)O)CC1; dPhe(4-NHCONH2) = NC(=O)Nc1ccc(C[C@@H](N)C(=O)O)cc1; Dihydroorotyl(S) = O=C1C[C@@H](C(=O)*)NC(=O)N1; Phe(4-Cl) = N[C@@H](Cc1ccc(Cl)cc1)C(=O)O; Phe(4-NH2) = Nc1ccc(C[C@H](N)C(=O)O)cc1

Data set [1] has as its system SSTR2. The arrangement: method as in Hou et al. [2022]; Zhu et al. [2020]; Fani et al. [2017]. Particulars: compared to DOTA-TATE; ref Hou et al. [2022]; Zhu et al. [2020]; Fani et al. [2017]; cited from earlier work.
The nature of data set [2]: in vitro. The format is in vitro ADME. The conditions noted are these: mouse, serum. The protocol:
(§1) Haarlerbergweg, The Netherlands) (250 and 100 µL, respectively) at 37 °C. […] In mouse serum, the proteins were precipitated by adding an aliquot of the radiotracer to an equal volume of acetonitrile. The vial was vortexed vigorously and centrifuged for 20 min at 10,000 rpm. Stability studies were monitored by radio-HPLC (Additional file 1: Figs. S5 and S6).

The format of data set [3] is physicochemical. Particulars: 37 °C, radio-HPLC, n = 1. The protocol: as §1
The conditions of data set [4]: in vivo; cited from earlier work.

Take `C[C@@H](O)[C@@H]1NC(=O)[C@H](CCCCN)NC(=O)[C@@H](Cc2ccc(NC(N)=O)cc2)NC(=O)[C@H](Cc2ccc(NC(=O)[C@@H]3CC(=O)NC(=O)N3)cc2)NC(=O)[C@H](NC(=O)[C@H](Cc2ccc(Cl)cc2)NC(=O)CN2CCN(CC(=O)O)CCN(CC(=O)O)CCN(CC(=O)O)CC2)CSSC[C@@H](C(=O)N[C@H](Cc2ccc(O)cc2)C(N)=O)NC1=O` [DOTA-JR11] ({DOTA}-[Phe(4-Cl)][dC][Phe(4-NH2)](Dihydroorotyl(S))[dPhe(4-NHCONH2)]KTC[dY]-NH2; disulfide 2-7; C-terminus assumed): in data set [1], the “binding affinity to SSTR2” value is recorded as “lower binding affinity”.
Turning to `C[C@@H](O)[C@@H]1NC(=O)[C@H](CCCCN)NC(=O)[C@@H](Cc2ccc(NC(N)=O)cc2)NC(=O)[C@H](Cc2ccc(NC(=O)[C@@H]3CC(=O)NC(=O)N3)cc2)NC(=O)[C@H](NC(=O)[C@H](Cc2ccc(Cl)cc2)NC(=O)CN2CCN(CC(=O)O)CCN(CC(=O)O)CCN(CC(=O)O)CC2)CSSC[C@@H](C(=O)N[C@H](Cc2ccc(O)cc2)C(N)=O)NC1=O` [[^177Lu]Lu-DOTA-JR11, metal not drawn] ({DOTA}-[Phe(4-Cl)][dC][Phe(4-NH2)](Dihydroorotyl(S))[dPhe(4-NHCONH2)]KTC[dY]-NH2; disulfide 2-7 (inferred); C-terminus assumed), in data set [2], the fraction remaining at 2 h, 12 MBq/mL is 94.5% and the share remaining at 24 h, 12 MBq/mL is 93.7%.
Turning to `C[C@@H](O)[C@@H]1NC(=O)[C@H](CCCCN)NC(=O)[C@@H](Cc2ccc(NC(N)=O)cc2)NC(=O)[C@H](Cc2ccc(NC(=O)[C@@H]3CC(=O)NC(=O)N3)cc2)NC(=O)[C@H](NC(=O)[C@H](Cc2ccc(Cl)cc2)NC(=O)CN2CCN(CC(=O)O)CCN(CC(=O)O)CCN(CC(=O)O)CC2)CSSC[C@@H](C(=O)N[C@H](Cc2ccc(O)cc2)C(N)=O)NC1=O` [[^177Lu]Lu-DOTA-JR11] [metal not drawn] ({DOTA}-[Phe(4-Cl)][dC][Phe(4-NH2)](Dihydroorotyl(S))[dPhe(4-NHCONH2)]KTC[dY]-NH2; disulfide 2-7 (inferred); C-terminus assumed), the “PBS (%) intact radiolabeled peptide” value amounted to 96.5% in data set [3] (2 h, 1.2 MBq in 200 µL PBS) and 96.8% in data set [3] (24 h, 1.2 MBq in 200 µL PBS). In addition, the hematologic toxicity entry in data set [4] is reported as “severe grade 4 hematologic toxicity”.
In data set [2], `C[C@@H](O)[C@@H]1NC(=O)[C@H](CCCCN)NC(=O)[C@@H](Cc2ccc(NC(N)=O)cc2)NC(=O)[C@H](Cc2ccc(NC(=O)[C@@H]3CC(=O)NC(=O)N3)cc2)NC(=O)[C@H](NC(=O)[C@H](Cc2ccc(Cl)cc2)NC(=O)CN2CCN(CC(=O)O)CCN(CC(=O)O)CCN(CC(=O)O)CC2)CSSC[C@@H](C(=O)N[C@H](Cc2ccc(O)cc2)C(N)=O)NC1=O` [[^225Ac]Ac-DOTA-JR11, metal not drawn] ({DOTA}-[Phe(4-Cl)][dC][Phe(4-NH2)](Dihydroorotyl(S))[dPhe(4-NHCONH2)]KTC[dY]-NH2; disulfide 2-7 (inferred); C-terminus assumed) showed a fraction remaining at 22 h, 200 kBq/mL of 80.9%; a share remaining at 24 h, 200 kBq/mL of 81.4%; a share remaining at 27 h, 200 kBq/mL of 81%.
Take `C[C@@H](O)[C@@H]1NC(=O)[C@H](CCCCN)NC(=O)[C@@H](Cc2ccc(NC(N)=O)cc2)NC(=O)[C@H](Cc2ccc(NC(=O)[C@@H]3CC(=O)NC(=O)N3)cc2)NC(=O)[C@H](NC(=O)[C@H](Cc2ccc(Cl)cc2)NC(=O)CN2CCN(CC(=O)O)CCN(CC(=O)O)CCN(CC(=O)O)CC2)CSSC[C@@H](C(=O)N[C@H](Cc2ccc(O)cc2)C(N)=O)NC1=O` [[^225Ac]Ac-DOTA-JR11] [metal not drawn] ({DOTA}-[Phe(4-Cl)][dC][Phe(4-NH2)](Dihydroorotyl(S))[dPhe(4-NHCONH2)]KTC[dY]-NH2; disulfide 2-7 (inferred); C-terminus assumed): the “PBS (%) intact radiolabeled peptide” value in data set [3] (radiolabeling condition 1, 22 h, 50 kBq in 500 µL PBS) is 76.9^a %; in data set [3] (radiolabeling condition 2 (without L-melatonin), 24 h, 50 kBq in 500 µL PBS) it was 56.6^b %; in data set [3] (radiolabeling condition 3 (with L-melatonin), 27 h, 50 kBq in 500 µL PBS), 81.0^c %.

The values are drawn from paper PMC10313624 (EJNMMI Radiopharmacy and Chemistry, 2023).
